Patent publication US11053253B2, “Macrocyclic compounds for treatment of medical disorders” (Achillion Pharmaceuticals, Inc., priority 2017, dated 2021)

biological target: Human Factor D (Homo sapiens (Human), UniProt P00746); test: Human Factor D Assay; format: biochemical; details: Human Factor D 80 nM, substrate Z-L-Lys-SBzl, DTNB, A405; read-out: IC50 (Stars)
Description: Example 2. Human Factor D Assay
Human Factor D (purified from human serum, Complement Technology, Inc.) at 80 nM final concentration is incubated with test compound at various concentrations for 5 min at room temperature in 50 mM Tris, 1M NaCl, pH 7.5. A synthetic substrate Z-L-Lys-SBzl and DTNB (Ellman's reagent) are added to final concentrations of 100 µM each. Absorbance at 405 nm (A405) is recorded at 30 second intervals for 30 minutes using a microplate spectrophotometer. IC50 values are calculated by nonlinear regression of Complement Factor D reaction rates as a function of test compound concentration.

Human Factor D, sequence (P00746 26-253): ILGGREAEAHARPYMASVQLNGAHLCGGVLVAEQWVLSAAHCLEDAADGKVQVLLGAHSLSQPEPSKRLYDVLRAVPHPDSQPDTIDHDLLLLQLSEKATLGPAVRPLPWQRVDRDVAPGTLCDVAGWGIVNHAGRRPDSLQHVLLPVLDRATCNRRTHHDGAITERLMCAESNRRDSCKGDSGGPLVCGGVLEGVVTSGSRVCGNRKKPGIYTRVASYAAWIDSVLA

| Compound | IC50 |
| --- | --- |
| CC(=O)c1nn(CC(=O)N2[C@H]3C[C@]4(C[C@@H]24)Cn2cc(nn2)COCc2ccc(Br)nc2NC3=O)c2cnccc12 [Compound T-27, (31R,33S,35R,Z)-32-(2-(3-acetyl-1H-pyrazolo[3,4-c]pyridin-1-yl)acetyl)-66-bromo-11H-8-oxa-32,5-diaza-6(2,3)-pyridina-1(1,4)-triazola-3(5,3)-bicyclo[3.1.0]hexanacyclononaphan-4-one] | < 1000 nM |
| CC(=O)c1nn(CC(=O)N2[C@H]3C[C@]4(C[C@@H]24)CN(C)CCCC=CCc2ccc(Br)nc2NC3=O)c2cnc(-c3cnc(C)nc3)cc12 [Compound T-57] | < 1000 nM |
| CC(=O)c1nn(CC(=O)N2[C@H]3C[C@@]4(CNC(=O)C(C)(C)CCCCCc5ccc(Br)nc5NC3=O)C[C@@H]24)c2cnc(-c3cnc(C)nc3)cc12 [Compound T-180] | < 1000 nM |
| CC(=O)c1nn2c3c(cc(-c4cnc(C)nc4)cc13)CCCCC=CCOC[C@@]13C[C@@H](C(=O)Nc4nc(C(F)(F)F)ccc4C)N(C(=O)C2)[C@@H]1C3 [Compound T-101] | < 1000 nM |
| CC(=O)c1nn(CC(=O)N2C[C@@]3(F)CNC(=O)C(C)(C)CC=CCOCc4ccc(Br)nc4NC(=O)[C@@H]2C3)c2cnc(-c3cnc(C)nc3)cc12 [Compound T-170] | < 1000 nM |
| CC(=O)c1nn(CC(=O)N2[C@H]3C[C@@]4(COC/C=C\COCc5ccc(Br)nc5NC3=O)C[C@@H]24)c2cnc(-c3cnc(C)nc3)cc12 [Compound T-45] | < 1000 nM |
| CC(=O)c1nn2c3c(cc(-c4cnc(C)nc4)cc13)CCCCC=CCc1cccc(n1)OC[C@@]13C[C@@H](C(=O)Nc4nc(Br)ccc4C)N(C(=O)C2)[C@@H]1C3 [Compound T-137] | < 1000 nM |
| CC(=O)c1nn2c3c(cc(-c4cnc(C)nc4)cc13)CCCCCCC(=O)NC[C@]1(F)C[C@@H](C(=O)Nc3nc(C(F)(F)F)ccc3C)N(C1)C(=O)C2 [Compound T-128] | < 1000 nM |
| CC(=O)c1nn(CC(=O)N2[C@H]3C[C@]4(C[C@@H]24)CN(C)CCCCCCCc2ccc(Br)nc2NC3=O)c2cnc(-c3cnc(C)nc3)cc12 [Compound T-75] | < 1000 nM |
| CC(=O)c1nn2c3c(cc(-c4cnc(C)nc4)cc13)CCCCCCCCCC[C@@]13C[C@@H](C(=O)Nc4nc(Br)ccc4C)N(C(=O)C2)[C@@H]1C3 [Compound T-109] | < 1000 nM |
| CC(=O)c1nn2c3c(cc(-c4cnc(C)nc4)cc13)CCCCCCC(=O)NC[C@@]13C[C@@H](C(=O)NCc4cccc(Cl)c4)N(C(=O)C2)[C@@H]1C3 [Compound T-95] | < 1000 nM |
| CC(=O)c1nn(CC(=O)N2[C@H]3C[C@@]4(COCCCCCCCc5ccc(Br)nc5NC3=O)C[C@@H]24)c2ccc(-c3cnc(C)nc3)cc12 [Compound T-40] | < 1000 nM |
| CC(=O)c1nn2c3c(cc(-c4cnc(C)nc4)cc13)CCCCCCCOC[C@@]13C[C@@H](C(=O)Nc4nc(Br)ccc4C)N(C(=O)C2)[C@@H]1C3 [Compound T-108] | < 1000 nM |
| CC(=O)c1nn2c3c(cc(-c4cnc(C)nc4)cc13)CCCCCCC(=O)NC[C@@]13C[C@@H](C(=O)Nc4nc(Br)c(F)cc4C)N(C(=O)C2)[C@@H]1C3 [Compound T-85] | < 1000 nM |
| CC(=O)c1nn2c3c(cc(-c4cnc(C)nc4)cc13)CCCCCCC(=O)NC[C@@]13C[C@@H](C(=O)N[C@H](C)c4ccccc4)N(C(=O)C2)[C@@H]1C3 [Compound T-188] | < 1000 nM |
| CC(=O)c1nn(CC(=O)N2[C@H]3C[C@@]4(COCC=CCOCc5ccc(Br)nc5NC3=O)C[C@@H]24)c2c(C)nc(-c3cnc(C)nc3)cc12 [Compound T-193] | < 1000 nM |
| CC(=O)c1nn2c3c(cc(-c4cnc(C)nc4)cc13)CC=CCCCC(=O)NC[C@@]13C[C@@H](C(=O)Nc4cncc(Br)n4)N(C(=O)C2)[C@@H]1C3 [Compound T-233] | < 1000 nM |
| CC(=O)c1nn2c3c(cc(-c4cnc(C)nc4)cc13)CCCCCCC(=O)NC[C@@]1(F)C[C@@H](C(=O)Nc3nc(C(F)(F)F)ccc3C)N(C1)C(=O)C2 [Compound T-168] | < 1000 nM |
| CC(=O)c1nn(CC(=O)N2[C@H]3C[C@@]4(CNS(=O)(=O)CCC=Cc5ccc(Br)nc5NC3=O)C[C@@H]24)c2cnccc12 [Compound T-16, (41R,43S,45R)-42-(2-(3-acetyl-1H-pyrazolo[3,4-c]pyridin-1-yl)acetyl)-16-bromo-7-thia-42,2,6-triaza-1(2,3)-pyridina-4(3,5)-bicyclo[3.1.0]hexanacycloundecaphan-10-en-3-one 7,7-dioxide] | < 1000 nM |
| CC(=O)c1nn2c3c(cc(-c4cnc(C)nc4)cc13)CCCCCCC(=O)NC[C@@]13C[C@@H](C(=O)NCCOC(F)(F)F)N(C(=O)C2)[C@@H]1C3 [Compound T-208] | < 1000 nM |
| CC(=O)c1nn2c3c(cc(-c4cnc(C)nc4)cc13)CC=CCCCC(=O)N(C)C[C@@]13C[C@@H](C(=O)Nc4ccn(CC(F)(F)F)n4)N(C(=O)C2)[C@@H]1C3 [Compound T-204] | < 1000 nM |
| CCCCCNC(=O)[C@@H]1C[C@]23CNC(=O)CCCCCCc4cc(-c5cnc(C)nc5)cc5c(C(C)=O)nn(c45)CC(=O)N1[C@@H]2C3 [Compound T-200] | < 1000 nM |
| CC(=O)c1nn(CC(=O)N2[C@H]3C[C@]4(C[C@@H]24)CN(C)CCCCCCCc2ccc(Br)nc2NC3=O)c2ccc(-c3cnc(C)nc3)cc12 [Compound T-110] | < 1000 nM |

| Compound | IC50 |
| --- | --- |
| C=C1COCc2ccc(Br)nc2NC(=O)[C@@H]2C[C@]3(C[C@H]3N2C(=O)Cn2nc(C(C)=O)c3cc(-c4cnc(C)nc4)ccc32)Cn2cc1cn2 [Compound T-66] | < 1000 nM |
| CC(=O)c1nn(CC(=O)N2[C@H]3C[C@@]4(COCC=CCOCc5ccc(Br)nc5NC3=O)C[C@@H]24)c2cnccc12 [Compound T-11, (41R,43S,45S)-42-(2-(3-acetyl-1H-pyrazolo[3,4-c]pyridin-1-yl)acetyl)-16-bromo-6,11-dioxa-42,2-diaza-1(2,3)-pyridina-4(3,5)-bicyclo[3.1.0]hexanacyclododecaphan-8-en-3-one] | < 1000 nM |
| CC(=O)c1nn2c3c(cc(-c4cnc(C)nc4)cc13)CCCCCCC(=O)NC[C@@]13C[C@@H](C(=O)Nc4cc(Br)ccc4F)N(C(=O)C2)[C@@H]1C3 [Compound T-230] | < 1000 nM |
| CC(=O)c1nn2c3c(cc(-c4cnc5ccnn5c4)cc13)CCCCCCC(=O)NC[C@@]13C[C@@H](C(=O)Nc4nc(C(F)(F)F)ccc4C)N(C(=O)C2)[C@@H]1C3 [Compound T-255] | < 1000 nM |
| CC(=O)c1nn(CC(=O)N2[C@H]3C[C@]4(C[C@@H]24)CN(C)CCCC=CCc2ccc(Br)nc2NC3=O)c2ccc(-c3cnc(C)nc3)cc12 [Compound T-65] | < 1000 nM |
| CC(=O)c1nn2c3cc(c(-c4cnc(C)nc4)cc13)OCCCCCCCCCC[C@@]13C[C@@H](C(=O)Nc4nc(Br)ccc4C)N(C(=O)C2)[C@@H]1C3 [Compound T-99] | < 1000 nM |
| CC(=O)c1nn(CC(=O)N2C[C@@]3(F)COCCCCCCc4ccc(Br)nc4NC(=O)[C@@H]2C3)c2ccc(-c3cnc(C)nc3)cc12 [Compound T-195] | < 1000 nM |
| CC(=O)c1nn2c3c(cc(-c4cnc(C)nc4)cc13)CC=CCCCC(=O)NC[C@@]1(F)C[C@@H](C(=O)Nc3nc(Br)ccc3C)N(C1)C(=O)C2 [Compound T-174] | < 1000 nM |
| CC(=O)c1nn2c3c(cc(-c4cnc(C)nc4)cc13)CCCCCCC(=O)NC[C@@]13C[C@@H](C(=O)Nc4cccc(-c5cc(F)c(F)cc5Cl)c4F)N(C(=O)C2)[C@@H]1C3 [Compound T-222] | < 1000 nM |
| CC(=O)c1nn(CC(=O)N2C[C@@]3(F)COCCCCCCCCc4ccc(Br)nc4NC(=O)[C@@H]2C3)c2cnc(-c3cnc(C)nc3)cc12 [Compound T-239] | < 1000 nM |
| CC(=O)c1nn(CC(=O)N2[C@H]3C[C@@]4(CNC(=O)C(C)(C)CCCCc5ccc(Br)nc5NC3=O)C[C@@H]24)c2ccc(-c3cnc(C)nc3)cc12 [Compound T-183] | < 1000 nM |
| CC(=O)c1nn2c3c(cc(-c4cnc(C)nc4)cc13)CCCCCCC(=O)NC[C@@]1(F)C[C@@H](C(=O)Nc3nc(Br)ccc3C)N(C1)C(=O)C2 [Compound T-175] | < 1000 nM |
| CC(=O)c1nn2c3c(cc(-c4cnc(C)nc4)cc13)CCCCCc1cccc(n1)OC[C@@]13C[C@@H](C(=O)Nc4nc(Br)ccc4C)N(C(=O)C2)[C@@H]1C3 [Compound T-141] | < 1000 nM |
| CC(=O)c1nn2c3c(cc(-c4cnc(C)nc4)cc13)CCCCCCC(=O)NC[C@@]13C[C@@H](C(=O)NCC(C)(C)C)N(C(=O)C2)[C@@H]1C3 [Compound T-201] | < 1000 nM |
| CC(=O)c1nn2c3c(cc(-c4cnc(C)nc4)cc13)CCCCCCC(=O)NC[C@@]13C[C@@H](C(=O)N[C@@H](C)CC(C)(C)C)N(C(=O)C2)[C@@H]1C3 [Compound T-226] | < 1000 nM |
| CC(=O)c1nn(CC(=O)N2[C@H]3C[C@]4(C[C@@H]24)CN(C)CCCCC=CCc2ccc(Br)nc2NC3=O)c2ccc(-c3cnc(C)nc3)cc12 [Compound T-64] | < 1000 nM |
| CC(=O)c1nn2c3c(cc(-c4cnc(C)nc4)cc13)CCCCCCC(=O)NC[C@@]13C[C@@H](C(=O)N[C@@H](C)c4cccc(Cl)c4F)N(C(=O)C2)[C@@H]1C3 [Compound T-232] | < 1000 nM |
| CC(=O)c1nn(CC(=O)N2[C@H]3C[C@@]4(COCCCCOCc5ccc(Br)nc5NC3=O)C[C@@H]24)c2c(CF)cc(-c3cnc(C)nc3)cc12 [Compound T-78] | < 1000 nM |
| CC(=O)c1nn2c3c(cc(-c4cnc(C)nc4)cc13)CCCCCCC(=O)NC[C@@]13C[C@@H](C(=O)Nc4cncc(Br)n4)N(C(=O)C2)[C@@H]1C3 [Compound T-234] | < 1000 nM |
| CC(=O)c1nn(CC(=O)N2[C@H]3C[C@]4(C[C@@H]24)CN(C)CCCCCCc2ccc(Br)nc2NC3=O)c2c(C)cc(-c3cnc(C)nc3)cc12 [Compound T-72] | < 1000 nM |
| CC(=O)c1nn(CC(=O)N2C[C@@]3(F)COCCCCCCc4ccc(Br)nc4NC(=O)[C@@H]2C3)c2cnc(-c3cnc(C)nc3)cc12 [Compound T-179] | < 1000 nM |
| CC(=O)c1nn2c3c(cc(-c4cnc(C)nc4)cc13)CC=CCCCC(=O)NC[C@@]13C[C@@H](C(=O)Nc4ccc(F)c(Br)n4)N(C(=O)C2)[C@@H]1C3 [Compound T-214] | < 1000 nM |
